The test system of data set [1] is TRPV1^+ neurons. Nature of the data set: Neonatal capsaicin treatment of diabetes-prone NOD mice: insulitis and diabetes development. Type of data set: in vivo. The source says:
Using immunofluorescence, it was observed that murine islets are associated with meshworks of TRPV1^+ fibers (FIG. 1a). TRPV1 was undetectable in endocrine islet cells by immunofluorescence (FIG. 1a, b) and by RT-PCR of purified NOD islets (FIG. 9). based on this evidence of islet innervation by TRPV1^+ primary afferent sensory neurons, we investigated their possible role in T1D pathogenesis, using neonatal treatment of diabetes-prone NOD mice with capsaicin to permanently remove these neurons (Caterina and Julius, 2001; Jancso et al., 1977). Two day-old NOD mice received capsaicin (50 mg/kg, s.c.) or vehicle (NOD^caps, NOD^ctrl). […] We confirmed the lack of TRPV1 expression in NOD^caps mice, using immunofluorescence (FIG. 1a, b, TRPV1 green), Western blots (8, 12 & 20 wk), and standard hot-plate testing in randomly selected 5-6 wk old or in diabetic animals (FIG. 1c).
(§1) NOD, NOD.scid, BDC2.5 TCR transgenic NOD mice (‘BDC2.5-NOD’), NOD-β2m^null, C57BL/6 (‘B6’), B6-TRPV1^null, NOR NOD×B6 Idd4 congenic mice (NOD.B6-(D11Nds1-D11Mit325)/DelJ) were obtained from the Jackson Laboratories (Bar Harbor, Me.) and maintained under approved protocols in our vivarium (NOD female diabetes incidence: 85-90%). […] Control mice (NOD^ctrl) received 20 μL vehicle (10% ethanol, 10% Tween, 80% saline). In adoptive transfer experiments, splenocytes from 4-6 diabetic NOD females were pooled and 10^7 cells/mouse were injected (100 μL i.v.) into irradiated (300 rad) 6- to 8 wk-old NOD.scid recipients. Diastix strips were used to screen for glucosuria (Bayer HealthCare), diabetes was confirmed by diabetic blood glucose measurements on 2 consecutive days (>13.8 mM/l; SureStep, Life Technologies Inc., Burnaby, British Columbia, Canada).
Frozen murine pancreas sections were fixed in 4% paraformaldehyde, blocked with 5% normal donkey serum (Jackson), and stained with polyclonal rat or goat antibodies against GFAP (Signet Pathology Systems, Dedham, Mass.), polyclonal rabbit anti-TRPV1 (Oncogene) or guinea-pig antibody against insulin (DAKO, Carpinteria, Calif.). Bound antibodies were detected with biotinylated donkey anti-guinea pig or rat IgG (1:200, Jackson), Streptavidin AlexaFluor 546 or 633 (1:300, Molecular Probes, Eugene, Oreg.), and FITC conjugated donkey anti-rabbit IgG (1:25, Jackson). […] TRPV1 staining was performed on snap-frozen sections of NOD female pancreas with an overnight incubation of primary antibody at 4° C. To score insulitis severity, pancreata were fixed in 10% buffered formalin for a minimum of 24 hr. Histological sections were stained with hematoxylin and eosin and three blinded observers scored at the following scale: 0, normal islet; 1, peri-insulitis or encroachment of <25% of the islet surface area; 2, infiltration of 25-50% of the islet surface area; 3, infiltration of >50% of the islet surface area (Winer et al., 2003). Spleen and lymph node cells were stained with either 2 nM PE-conjugated NRP-V7/H-2K^d or TUM/H-2K^d tetramers, the latter a negative control, in FACS buffer (1% v/v FBS, 0.1% w/v NaN3 in PBS) at 4° C. for 1 hr, followed by staining with FITC-conjugated anti-CD8 mAb (clone 53-6.7; […]) and PerCP-conjugated anti-B 220 Ab (clone RA6-3B2; […], both from BD Pharmingen). Tetramer positivity was analyzed on gated CD8+B220− cells and reported as percentage of cells binding the NRP-V7/H-2K^d tetramer minus the percentage of cells binding the negative control, TUM/H-2K^d tetramer.

Data set [2] deals with TRPV1^+ neurons. Description: Systemic and pancreatic T cell development and function in NOD^caps versus NOD^ctrl mice. Type of data set: in vivo. The protocol:
Delayed type hypersensitivity (DTH): […] Abdomens were shaved and 100 μl of the allergen were applied. 6 d later, the baseline thickness of right ears were measured by gauge before application of 10 μl 1% TNCB in oil or carrier only. Ear thickness was re-measured in sensitized and naïve animals 24 hr later. […] Calbiochem, San Diego, Calif.) were purchased, other antigens were previously generated and described (Winer et al., 2003). After 72 hrs, cultures were pulsed (1 μCi, [3H]thymidine/18 hrs) and counted by liquid scintillation. Lymph node assays were similar, but used 2×10^5 lymph node cells plus 2×10^5 irradiated (1,100 rad), syngeneic splenocytes/well. […] Bound antibodies were detected with biotinylated donkey anti-guinea pig or rat IgG (1:200, Jackson), Streptavidin AlexaFluor 546 or 633 (1:300, Molecular Probes, Eugene, Oreg.), and FITC conjugated donkey anti-rabbit IgG (1:25, Jackson). […] Histological sections were stained with hematoxylin and eosin and three blinded observers scored at the following scale: 0, normal islet; 1, peri-insulitis or encroachment of <25% of the islet surface area; 2, infiltration of 25-50% of the islet surface area; 3, infiltration of >50% of the islet surface area (Winer et al., 2003). […] Live events were collected based on forward- and side-scatter profiles on a FACScan flow cytometer (BD) and analyzed using FlowJo software (Stanford University).

The next data set relates to TRPV1. Description: Capsaicin-evoked Ca^2+ responses in dorsal root ganglion neurons. The class given is cell-based, NOD and NOR mice. The following applies: NOD DRG neurons compared with NOR, p<0.05.
In a further data set the test system is TRPV1^+ sensory neurons. Nature of the data set: Glucose challenge and insulin tolerance after capsaicin removal of TRPV1^+ sensory neurons. The class given is in vivo, NOD.scid / NOD mice.
Source text: We compared measures of β-cell function in untreated and in capsaicin treated NOD.scid mice, and in C57/BL6J (‘B6’) and B6.TRPV1^−/− mice, the latter with a normal complement of sensory afferent neurons but absent TRPV1 expression (Caterina et al., 2000). NOD.scid mice were used to ascertain absence of lymphoid islet infiltration in NOD experiments, CD1 mice provided controls (FIGS. 17A-17C).
as §1

The nature of data set [3]: Diabetes reversal after pancreatic i.a. substance P in newly diabetic NOD mice. Type of data set: in vivo. As to the method: (§2) Animals were anaesthetized with isoflurane and the aorta developed with minimal trauma to ligate above and below the celiac artery. A 32G needle was used to inject Evans Blue (3 mg/kg/100 μl; Sigma), substance P (2 nmol/100 μl; Sigma) or saline into the aorta just prior to the celiac branching. Ligations are released after closure of the injection site. For insulitis studies, pancreata from treated mice were obtained 48-72 hr after pancreas injection treatment and histology performed. In diabetes reversal experiments, newly diagnosed NOD female mice were treated with either saline or substance P and followed without exogenous insulin treatment.

In data set [4] the test system is activated CD4+ NOD T cells. Nature of the data set: sP response of activated CD4+ NOD T cells in vitro (proliferation). Type of data set: cell-based, NOD mice. The protocol:
Splenocytes from 3- to 24 wk-old NOD females were cultured (4×10^5 cells/well) in AIM V serum-free medium (Life Technologies) containing antigen (0.002-50 μg/ml), baculovirus-derived human GAD65 (Diamyd Diagnostics, Stockholm, Sweden), human GFAP (>90% pure) and bovine S100b (>98% pure; Calbiochem, San Diego, Calif.) were purchased, other antigens were previously generated and described (Winer et al., 2003). After 72 hrs, cultures were pulsed (1 μCi, [3H]thymidine/18 hrs) and counted by liquid scintillation. Lymph node assays were similar, but used 2×10^5 lymph node cells plus 2×10^5 irradiated (1,100 rad), syngeneic splenocytes/well. To normalize pooled data, we calculated a stimulation index (SI, cpm antigen stimulated/medium control), background counts were <1500 cpm in spleen cell and <1000 cpm in lymph node cultures. In some proliferation studies, plate-bound anti-CD3 (0.001-3 μg/ml; BD PharMingen) and anti-CD28 (0.2 μg/ml; BD PharMingen) were used to stimulate CD4+ T-cells negatively selected from NOD β2m^null splenocytes in the presence of substance P.

The test system of data set [5] is islet T cell infiltration. Description: Intra-arterial pancreas injection of substance P in prediabetic NOD mice (insulitis). The class given is in vivo. As to the method:
as §2
Frozen murine pancreas sections were fixed in 4% paraformaldehyde, blocked with 5% normal donkey serum (Jackson), and stained with polyclonal rat or goat antibodies against GFAP (Signet Pathology Systems, Dedham, Mass.), polyclonal rabbit anti-TRPV1 (Oncogene) or guinea-pig antibody against insulin (DAKO, Carpinteria, Calif.). Bound antibodies were detected with biotinylated donkey anti-guinea pig or rat IgG (1:200, Jackson), Streptavidin AlexaFluor 546 or 633 (1:300, Molecular Probes, Eugene, Oreg.), and FITC conjugated donkey anti-rabbit IgG (1:25, Jackson). […] TRPV1 staining was performed on snap-frozen sections of NOD female pancreas with an overnight incubation of primary antibody at 4° C. […]

For data set [6], the system named is BDC2.5 T cell receptor transgenic T cells. Description: CFSE dye dilution in vivo clonal expansion of BDC2.5 T cells in pancreatic lymph nodes. Details: species or system NOD mice. As to the method: For dye dilution in vivo clonal expansion studies, splenic CD4+ T-cells from NOD-BDC2.5 females were isolated by negative selection (Stemcell Technologies, Vancouver, Canada) and incubated with 2.5 μM CFSE (10′/37° C., Molecular Probes, Eugene, Oreg.) in PBS. Prediabetic (12 wk) NOD females pretreated 12 hr prior with substance P or saline, were injected i.v. with 3×10^6 CFSE-labeled CD4+ T-cells in sterile PBS.
Lymphocytes from thymus, pancreatic/axillary lymph nodes and spleen were stained with FITC, PE, and APC conjugated antibodies to CD3, CD4, CD8, CD44, CD25, CD69 CD62L and FoxP3 (BD Pharmingen, not all combinations are shown). NK-1R and Vβ4 antibodies were obtained from Novus Biologicals (Littleton, Colo.) and Cedarlane (Hornby, Canada), respectively. Live events were collected based on forward- and side-scatter profiles on a FACScan flow cytometer (BD) and analyzed using FlowJo software (Stanford University).

[7] abbreviates: mice that failed to reverse hyperglycemia, i.a. sP.
[8] abbreviates: systemic (i.v.) injection of the same sP dose.

Entries after “also recorded” stand apart in the source; their conditions may differ.

On to `COc1cc(CNC(=O)CCCC/C=C/C(C)C)ccc1O` [capsaicin], for which the “tolerability of neonatal capsaicin treatment” value in the data set on TRPV1^+ neurons [1] (50 mg/kg s.c. in 2 day-old mice) is listed as “viable, fertile, without abnormalities in growth or gross tissue structure, including pancreas; also recorded: no signs of adverse effects”. Moreover, the “islets free of lymphocytes” value in the data set on TRPV1^+ neurons [1] (NOD^caps mice (capsaicin 50 mg/kg s.c. at 2 days old), by age 20 wk) is “More than 70%”. The “islet infiltrations compared with NOD^ctrl” value in the data set with TRPV1^+ neurons [1] (NOD^caps mice, p<0.0001) is listed as “significantly reduced”. In addition, the “reduction in final diabetes incidence” value in the data set on TRPV1^+ neurons [1] (neonatal capsaicin treatment, 35 wk plus next 12 wk, n=52 mice/group, p<0.0001) is reported as “about 80%”. In addition, the onset of diabetes result with TRPV1^+ neurons [1] (neonatal capsaicin treatment, p=0.0002) is given as “delayed the onset of diabetes”. In addition, the “fraction of NOD^caps mice in which infiltrated islets were entirely absent” value with TRPV1^+ neurons [1] (serial sectioning) is given as “one third”. Also, in the data set on TRPV1^+ neurons [2] (NOD^caps mice, beyond 12-16 wk of age), the “regulatory T cell compartment in pancreatic lymph nodes” value is “maintained their regulatory T cell compartment”. In addition, the “CD8+ and activated CD8+ CD69+ effector T lymphocytes in pancreatic lymph node tissue” value with TRPV1^+ neurons [2] (NOD^caps versus NOD^ctrl) is “significantly reduced proportions and absolute numbers”. In addition, the “drug concentration required for maximum Ca^2+ response, NOD versus NOR DRG neurons” value in the data set with TRPV1 is 10 fold. In the data set on TRPV1^+ sensory neurons (10-12 wk old NOD.scid^caps versus NOD.scid^ctrl, p=0.004), the “serum glucose levels after i.p. glucose challenge” value was “significantly reduced”. Further, in the data set with TRPV1^+ sensory neurons (NOD.scid^caps versus NOD.scid^ctrl), the “insulin production after glucose challenge” value is “significantly less insulin production”.

As to substance P, in data set [3] (setting [7]), the body weight entry is reported as “preventing the progressive loss of body weight” and the “insulin sensitivity in non-responding mice” value is “improved insulin sensitivity”. In data set [3] (newly diabetic NOD mice, 2-3 d after diagnosis, pancreatic i.a. sP, without insulin therapy), the “normalization of blood glucose levels” value was “over half of the i.a. injected diabetics normalized blood glucose levels”. Also, the insulin sensitivity entry in data set [3] (raising pancreatic sP levels, diabetic NOD mice) is recorded as “dramatically enhanced insulin sensitivity”. In addition, the “time fasting blood glucose remained at near normal levels” value in data set [3] (responding mice) is 2-8 wk. Also, in data set [4], the “cell proliferation and survival” value is “abrogated cell proliferation and survival in a dose-dependent fashion”. For the same compound, the “islets free of T cell infiltration” value in data set [5] (prediabetic NOD, 12 wk of age, within 2d after i.a. sP injection (2 nmoles/kg)) is listed as “about 80%”. In addition, the “effect on islet T cell infiltration, systemic injection” value in data set [5] (setting [8]) is “did not have similar effects”. In addition, the “expansion in pancreatic lymph nodes of BDC2.5 cells pretreated in vitro” value in data set [6] (cells in vitro pretreated with sP overnight, p=0.0045) is recorded as “reduced the ability of these cells to expand in pancreatic lymph nodes”. The “cellularity and clonal expansion of BDC2.5 T cells in pancreatic lymph nodes” value in data set [6] (pancreatic i.a. sP 12-16 hr before transfer, analyzed 4 days later, dye dilution, p=0.003) is “reduced cellularity and clonal expansion”. Moreover, the “expansion of BDC2.5 T cells in pancreatic lymph nodes, systemic injection” value in data set [6] (setting [8]) was “had no effect on expansion”.

Values taken from patent US7544365B2, “TRPV1+ sensory neurons control of β-cells stress and islet inflammation in diabetes” (priority 2006, dated 2009).
